Results as given in PubChem BioAssay AID2060493 (Molecular Pharmacology Branch, DTP, NCI, 2025).

System: 616215-338-R-J1-PDC tumor spheroids, viability
Assay: Anticancer human tumor 616215-338-R-J1-PDC patient-derived colon adenocarcinoma cell line growth inhibition [GQUAD]
Settings: spheroids with HUVEC and MSC; for IC50: curve of first compound; for viability, T/C: stronger effect = lower value
Method in brief: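 Tumor cells were grown as complex spheroids with HUVEC endothelial cells and mesenchymal stem cells as stroma. G-quadruplex stabilizers were combined with targeted agents over half-log dilutions from near the clinical Cmax, or from 10 microM.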

[1] = second compound 0.0316 µM, first compound 0.0316 µM
[2] = second compound 0.0316 µM, first compound 0.1 µM
[3] = second compound 0.0316 µM, first compound 0.316 µM
[4] = second compound 0.0316 µM, first compound 1 µM
[5] = second compound 0.0316 µM, first compound 3.16 µM
[6] = second compound 0.0316 µM, first compound 10 µM
[7] = second compound 0.1 µM, first compound 0.0316 µM
[8] = second compound 0.1 µM, first compound 0.1 µM
[9] = second compound 0.1 µM, first compound 0.316 µM
[10] = second compound 0.1 µM, first compound 1 µM
[11] = second compound 0.1 µM, first compound 3.16 µM
[12] = second compound 0.1 µM, first compound 10 µM
[13] = second compound 0.316 µM, first compound 0.0316 µM
[14] = second compound 0.316 µM, first compound 0.1 µM
[15] = second compound 0.316 µM, first compound 0.316 µM
[16] = second compound 0.316 µM, first compound 1 µM
[17] = second compound 0.316 µM, first compound 3.16 µM
[18] = second compound 0.316 µM, first compound 10 µM
[19] = second compound 1 µM, first compound 0.0316 µM
[20] = second compound 1 µM, first compound 0.1 µM
[21] = second compound 1 µM, first compound 0.316 µM
[22] = second compound 1 µM, first compound 1 µM
[23] = second compound 1 µM, first compound 3.16 µM
[24] = second compound 1 µM, first compound 10 µM
[25] = second compound 3.16 µM, first compound 0.0316 µM
[26] = second compound 3.16 µM, first compound 0.1 µM
[27] = second compound 3.16 µM, first compound 0.316 µM
[28] = second compound 3.16 µM, first compound 1 µM
[29] = second compound 3.16 µM, first compound 3.16 µM
[30] = second compound 3.16 µM, first compound 10 µM
[31] = second compound 10 µM, first compound 0.0316 µM
[32] = second compound 10 µM, first compound 0.1 µM
[33] = second compound 10 µM, first compound 0.316 µM
[34] = second compound 10 µM, first compound 1 µM
[35] = second compound 10 µM, first compound 3.16 µM
[36] = second compound 10 µM, first compound 10 µM
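Note: spheroids exposed to agents for 7 days before readout.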
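Throughout, for viability, T/C: percent viability relative to DMSO vehicle control wells taken as 100%.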

Compound: COc1cccc2c1C(=O)c1c(O)c3c(c(O)c1C2=O)CC(O)(C(=O)CO)CC3OC1CC(N)C(O)C(C)O1 (centres undefined) + CN(C)c1ccc(Nc2c3ccc(NC(=O)CCN4CCCC4)cc3nc3cc(NC(=O)CCN4CCCC4)ccc23)cc1
- IC50 (second compound 0.0316 µM): 467 nM
- IC50 (second compound 0.1 µM): 511 nM
- IC50 (second compound 0.316 µM): 483 nM
- IC50 (second compound 1 µM): 469 nM
- IC50 (second compound 3.16 µM): 511 nM
- IC50 (second compound 10 µM): 348 nM
- viability, T/C [1]: 101%
- viability, T/C [2]: 88%
- viability, T/C [3]: 51.7%
- viability, T/C [4]: 36.2%
- viability, T/C [5]: 17.7%
- viability, T/C [6]: 1.14%
- viability, T/C [7]: 101%
- viability, T/C [8]: 92.3%
- viability, T/C [9]: 47.3%
- viability, T/C [10]: 41.3%
- viability, T/C [11]: 20.1%
- viability, T/C [12]: 0.23%
- viability, T/C [13]: 105%
- viability, T/C [14]: 90.8%
- viability, T/C [15]: 49.3%
- viability, T/C [16]: 38%
- viability, T/C [17]: 20.1%
- viability, T/C [18]: 0.36%
- viability, T/C [19]: 102%
- viability, T/C [20]: 77.8%
- viability, T/C [21]: 53.3%
- viability, T/C [22]: 36%
- viability, T/C [23]: 19.9%
- viability, T/C [24]: 1.11%
- viability, T/C [25]: 97.6%
- viability, T/C [26]: 87.2%
- viability, T/C [27]: 46.3%
- viability, T/C [28]: 45.4%
- viability, T/C [29]: 19.6%
- viability, T/C [30]: 3.39%
- viability, T/C [31]: 101%
- viability, T/C [32]: 78%
- viability, T/C [33]: 48.9%
- viability, T/C [34]: 30.5%
- viability, T/C [35]: 20.5%
- viability, T/C [36]: 2.68%

Compound: CC1COCCN1c1cc(-c2ccnn2C)c2ccnc(-c3ccn[nH]3)c2n1 (centres undefined) + CN(C)c1ccc(Nc2c3ccc(NC(=O)CCN4CCCC4)cc3nc3cc(NC(=O)CCN4CCCC4)ccc23)cc1
- IC50 (second compound 0.0316 µM): 157 nM
- IC50 (second compound 0.1 µM): 147 nM
- IC50 (second compound 0.316 µM): 164 nM
- IC50 (second compound 1 µM): 142 nM
- IC50 (second compound 3.16 µM): 129 nM
- IC50 (second compound 10 µM): 129 nM
- viability, T/C [1]: 99.1%
- viability, T/C [2]: 61.8%
- viability, T/C [3]: 31.1%
- viability, T/C [4]: 25.6%
- viability, T/C [5]: 18.4%
- viability, T/C [6]: 21.6%
- viability, T/C [7]: 94.4%
- viability, T/C [8]: 58.5%
- viability, T/C [9]: 33.5%
- viability, T/C [10]: 21.2%
- viability, T/C [11]: 21.6%
- viability, T/C [12]: 22.4%
- viability, T/C [13]: 93%
- viability, T/C [14]: 65.4%
- viability, T/C [15]: 29.1%
- viability, T/C [16]: 23.1%
- viability, T/C [17]: 20.7%
- viability, T/C [18]: 18.6%
- viability, T/C [19]: 90.1%
- viability, T/C [20]: 55.5%
- viability, T/C [21]: 38.1%
- viability, T/C [22]: 22.6%
- viability, T/C [23]: 18.8%
- viability, T/C [24]: 25.7%
- viability, T/C [25]: 91.7%
- viability, T/C [26]: 55.6%
- viability, T/C [27]: 30.2%
- viability, T/C [28]: 23.8%
- viability, T/C [29]: 22.2%
- viability, T/C [30]: 16.7%
- viability, T/C [31]: 88.4%
- viability, T/C [32]: 53.8%
- viability, T/C [33]: 35.8%
- viability, T/C [34]: 24.2%
- viability, T/C [35]: 19.7%
- viability, T/C [36]: 18.5%
